According to PubChem BioAssay AID2060910 (Molecular Pharmacology Branch, DTP, NCI, 2025):

Tested on: 242566-281-R-J2-PDC complex spheroid viability
Assay: Anticancer human tumor 242566-281-R-J2-PDC patient-derived pancreatic carcinoma cell line growth inhibition [RAS]
Settings: for IC50: curve of first compound; for viability, T/C: stronger effect = lower value
In short: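 Agents were tested in combination matrices in half-log decrements from a top concentration at or near clinical Cmax (10 microM if undetermined). Targets were multi-cell spheroids of tumour lines plus HUVEC and MSC stromal cells.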
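Also: spheroids exposed to compound for 7 days before readout.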
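For viability, T/C in this document: 100% = DMSO vehicle control wells.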

## CCC(CC)c1cc(NC2CCC(N)C2)n2nccc2n1 (centres undefined) + C=CC(=O)N1CCN(c2nc(OCC3CCCN3C)nc3c(F)c(-c4nc(N)cc(C)c4C(F)(F)F)c(Cl)cc23)C(C)C1
Second compound 0.00316 µM
  IC50: 4.59 µM
Second compound 0.01 µM
  IC50: 4.42 µM
Second compound 0.0316 µM
  IC50: 3.74 µM
Second compound 0.1 µM
  IC50: 4.54 µM
Second compound 0.316 µM
  IC50: 3.76 µM
Second compound 1 µM
  IC50: 4.55 µM
Second compound 0.00316 µM, first compound 0.0316 µM
  viability, T/C: 108%
Second compound 0.00316 µM, first compound 0.1 µM
  viability, T/C: 141%
Second compound 0.00316 µM, first compound 0.316 µM
  viability, T/C: 94.3%
Second compound 0.00316 µM, first compound 1 µM
  viability, T/C: 109%
Second compound 0.00316 µM, first compound 3.16 µM
  viability, T/C: 72.6%
Second compound 0.00316 µM, first compound 10 µM
  viability, T/C: 1.71%
Second compound 0.01 µM, first compound 0.0316 µM
  viability, T/C: 121%
Second compound 0.01 µM, first compound 0.1 µM
  viability, T/C: 146%
Second compound 0.01 µM, first compound 0.316 µM
  viability, T/C: 108%
Second compound 0.01 µM, first compound 1 µM
  viability, T/C: 100%
Second compound 0.01 µM, first compound 3.16 µM
  viability, T/C: 72.8%
Second compound 0.01 µM, first compound 10 µM
  viability, T/C: 1.81%
Second compound 0.0316 µM, first compound 0.0316 µM
  viability, T/C: 129%
Second compound 0.0316 µM, first compound 0.1 µM
  viability, T/C: 123%
Second compound 0.0316 µM, first compound 0.316 µM
  viability, T/C: 97.1%
Second compound 0.0316 µM, first compound 1 µM
  viability, T/C: 98%
Second compound 0.0316 µM, first compound 3.16 µM
  viability, T/C: 58.3%
Second compound 0.0316 µM, first compound 10 µM
  viability, T/C: 1.98%
Second compound 0.1 µM, first compound 0.0316 µM
  viability, T/C: 137%
Second compound 0.1 µM, first compound 0.1 µM
  viability, T/C: 129%
Second compound 0.1 µM, first compound 0.316 µM
  viability, T/C: 106%
Second compound 0.1 µM, first compound 1 µM
  viability, T/C: 96.5%
Second compound 0.1 µM, first compound 3.16 µM
  viability, T/C: 82.5%
Second compound 0.1 µM, first compound 10 µM
  viability, T/C: 1.56%
Second compound 0.316 µM, first compound 0.0316 µM
  viability, T/C: 149%
Second compound 0.316 µM, first compound 0.1 µM
  viability, T/C: 124%
Second compound 0.316 µM, first compound 0.316 µM
  viability, T/C: 99.3%
Second compound 0.316 µM, first compound 1 µM
  viability, T/C: 102%
Second compound 0.316 µM, first compound 3.16 µM
  viability, T/C: 62.8%
Second compound 0.316 µM, first compound 10 µM
  viability, T/C: 1.81%
Second compound 1 µM, first compound 0.0316 µM
  viability, T/C: 125%
Second compound 1 µM, first compound 0.1 µM
  viability, T/C: 156%
Second compound 1 µM, first compound 0.316 µM
  viability, T/C: 82.7%
Second compound 1 µM, first compound 1 µM
  viability, T/C: 115%
Second compound 1 µM, first compound 3.16 µM
  viability, T/C: 75%
Second compound 1 µM, first compound 10 µM
  viability, T/C: 1.22%

## CC(=O)OC12COC1CC(O)C1(C)C(=O)C(O)C3=C(C)C(OC(=O)C(O)C(NC(=O)OC(C)(C)C)c4ccccc4)CC(O)(C(OC(=O)c4ccccc4)C21)C3(C)C (centres undefined) + CCn1c(-c2cc(N3CCN(C)CC3)cnc2C(C)OC)c2c3cc(ccc31)-c1csc(n1)CC(NC(=O)C1CC1C)C(=O)N1CCCC(N1)C(=O)OCC(C)(C)C2
Second compound 0.000949 µM
  IC50: < 0.0316 µM
Second compound 0.003 µM
  IC50: < 0.0316 µM
Second compound 0.00949 µM
  IC50: < 0.0316 µM
Second compound 0.03 µM
  IC50: < 0.0316 µM
Second compound 0.0949 µM
  IC50: < 0.0316 µM
Second compound 0.3 µM
  IC50: < 0.0316 µM
Second compound 0.000949 µM, first compound 0.0316 µM
  viability, T/C: 38.4%
Second compound 0.000949 µM, first compound 0.1 µM
  viability, T/C: 32.3%
Second compound 0.000949 µM, first compound 0.316 µM
  viability, T/C: 21.8%
Second compound 0.000949 µM, first compound 1 µM
  viability, T/C: 32.2%
Second compound 0.000949 µM, first compound 3.16 µM
  viability, T/C: 31.9%
Second compound 0.000949 µM, first compound 10 µM
  viability, T/C: 27.6%
Second compound 0.003 µM, first compound 0.0316 µM
  viability, T/C: 34.2%
Second compound 0.003 µM, first compound 0.1 µM
  viability, T/C: 23.3%
Second compound 0.003 µM, first compound 0.316 µM
  viability, T/C: 22.6%
Second compound 0.003 µM, first compound 1 µM
  viability, T/C: 26.7%
Second compound 0.003 µM, first compound 3.16 µM
  viability, T/C: 32.5%
Second compound 0.003 µM, first compound 10 µM
  viability, T/C: 25.2%
Second compound 0.00949 µM, first compound 0.0316 µM
  viability, T/C: 26%
Second compound 0.00949 µM, first compound 0.1 µM
  viability, T/C: 19%
Second compound 0.00949 µM, first compound 0.316 µM
  viability, T/C: 21.9%
Second compound 0.00949 µM, first compound 1 µM
  viability, T/C: 20.2%
Second compound 0.00949 µM, first compound 3.16 µM
  viability, T/C: 20.9%
Second compound 0.00949 µM, first compound 10 µM
  viability, T/C: 16.8%
Second compound 0.03 µM, first compound 0.0316 µM
  viability, T/C: 19.1%
Second compound 0.03 µM, first compound 0.1 µM
  viability, T/C: 16.3%
Second compound 0.03 µM, first compound 0.316 µM
  viability, T/C: 17.9%
Second compound 0.03 µM, first compound 1 µM
  viability, T/C: 19%
Second compound 0.03 µM, first compound 3.16 µM
  viability, T/C: 11.6%
Second compound 0.03 µM, first compound 10 µM
  viability, T/C: 10%
Second compound 0.0949 µM, first compound 0.0316 µM
  viability, T/C: 11.7%
Second compound 0.0949 µM, first compound 0.1 µM
  viability, T/C: 11.9%
Second compound 0.0949 µM, first compound 0.316 µM
  viability, T/C: 13.4%
Second compound 0.0949 µM, first compound 1 µM
  viability, T/C: 10.5%
Second compound 0.0949 µM, first compound 3.16 µM
  viability, T/C: 6.83%
Second compound 0.0949 µM, first compound 10 µM
  viability, T/C: 6.76%
Second compound 0.3 µM, first compound 0.0316 µM
  viability, T/C: 9.32%
Second compound 0.3 µM, first compound 0.1 µM
  viability, T/C: 9.15%
Second compound 0.3 µM, first compound 0.316 µM
  viability, T/C: 7.89%
Second compound 0.3 µM, first compound 1 µM
  viability, T/C: 8.09%
Second compound 0.3 µM, first compound 3.16 µM
  viability, T/C: 7.91%
Second compound 0.3 µM, first compound 10 µM
  viability, T/C: 6.31%
